Entries after “also recorded” stand apart in the source; their conditions may differ.
Experiments:
thrombin = biological target: T1, thrombin (Homo sapiens, UniProt P00734); assay: Thrombin inhibition assay; format: biochemical
T1 construct: purchased Sigma Aldrich
Experimental: (§1) The enzyme inhibitory activity of fractions and AER525 was tested against trypsin [55], chymotrypsin [56], thrombin [56], elastase, and carboxypeptidase A [56]. For full details on trypsin, chymotrypsin, thrombin, and elastase inhibition assay refer to the work of Overlingė et al.. In the carboxypeptidase A assay, the final concentration of the enzyme was 1.6 µM, N-(4-methoxy-phenyl-azoformyl)-Phe-OH (GLPBIO Technology LLC; Montclair, CA, USA) at a concentration of 0.2 mg mL^−1 served as a substrate, and the carboxypeptidase inhibitor from potato tuber was used at a concentration range of 2.5–150 µg mL^−1. Mixtures containing the sample (10 µL) or inhibitor (10 µL) were preincubated with the enzyme (10 µL) and buffer (160 µL; 50 mM Tris-HCl at pH 7.5) at 25 °C. After 10 min, the substrate (20 µL) was added, and the reaction mixture was incubated for another 10 min at 25 °C. The absorbance of the solutions was measured at 350 nm with the application of a microplate reader (Varioskan Flash, Thermo Fisher Scientific OY, Vantaa, Finland). All enzymes were from Sigma Aldrich (St. Louis, MO, USA); 1% v/v DMSO was used to dissolve fractions at final concentrations of 45 µg mL^−1, while for pure AER525, it was additionally serially diluted to 45, 4.5, 0.45, and 0.045 µg mL^−1. […]

elastase = assay: Elastase inhibition assay; format: biochemical; conditions: highest concentration 45 µg mL^−1
Experimental: as §1

chymotrypsin = biological target: T2, chymotrypsin (Bos taurus, UniProt P00766); assay: Chymotrypsin inhibition assay; format: biochemical; conditions: highest concentration 45 µg mL^−1
T2 construct: purchased Sigma Aldrich
Experimental: as §1

[1] = ref [10],[11]; cited from earlier work
Excerpt: (§2) In addition to the nutritional properties of Aphanizomenon, assessed mainly based on the analyses of extracts, there are several studies showing that the cyanobacterium produces metabolites of significant biological activities.

[2] = test system: human cytosolic enzyme which is involved both in tumor progression and phytochemical bioavailability; conditions: ref [12]; cited from earlier work
Excerpt: as §2

Molecule | activity against thrombin (in words) (thrombin) | potency of thrombin inhibition, AER525 compared with dysinosin D (in words) (thrombin) | activity against elastase (in words) (elastase) | Elastase enzyme inhibition (IC50) (elastase; triplicates) | activity against chymotrypsin (in words) (chymotrypsin) | alleviating depression and anxiety symptoms (in words) [1] | inhibition of the human cytosolic enzyme (in words) [2]
CC(C)C[C@@H](NC(=O)[C@@H](N)CO)C(=O)N1[C@H](C(=O)N[C@H](C=O)CCCNC(=N)N)C[C@@H]2CC[C@@H](O)C[C@@H]21 [AER525] | potent activity; also recorded: strong thrombin-inhibitory activity | comparable potency | no effect; also recorded: No activity | - (not active (inhibition below 10%)) | no effect |  | 
NCCc1ccccc1 [β-phenylethylamine] |  |  |  |  |  | showed effectiveness in alleviating depression and anxiety symptoms | acted as inhibitors
phycocyanobilin |  |  |  |  |  | showed effectiveness in alleviating depression and anxiety symptoms | acted as inhibitors

From publication PMC11595689, “Aeruginosin 525 (AER525) from Cyanobacterium Aphanizomenon Sp. (KUCC C2): A New Serine Proteases Inhibitor” (Marine Drugs, 2024)
